Measurements taken from article PMC6432920 (Journal of medicinal chemistry, 2017).
Read-outs that look alike come from different tables or passages of the source.

Legend:
[1] = one dose treatment, nude mice bearing MCF-7 xenograft tumors; cited from earlier work
[2] = human liver microsomes; cited from earlier work

In the case of `COc1ccc2c(c1)NC(=O)CN2c1nc(C)nc2ccccc12` [Compound 2, 7-Methoxy-4-(2-methylquinazolin-4-yl)-3,4-dihydroquinoxalin-2(1H)-one], the lethal dose [1] is given as 4 mg/kg, the body weight end (0.25 mg/kg iv Q5D × 4) is given as 25.96 ± 1.54 g and the body weight start (0.25 mg/kg iv Q5D × 4) is given as 22.44 ± 1.27 g. For the same compound, the body weight end (0.5 mg/kg iv Q5D × 4) was 23.85 ± 1.57 g, the body weight start (0.5 mg/kg iv Q5D × 4) was 22.28 ± 1.33 g and the body weight end (1.0 mg/kg iv Q5D × 4) was 20.50 ± 3.27 g. The body weight start (1.0 mg/kg iv Q5D × 4) was 22.13 ± 1.24 g, the signs of toxicity (mice, 1.0 mg/kg) was “without obvious signs of toxicity” and the “metabolic stability in vitro t1/2” value [2] was 55 min.
